Literature values as cited in patent US20070010756A1 (priority 2005, published 2007).

System: patients
Conditions: in vivo

CC(C)c1cccc(C(C)C)c1O [propofol]
BIS value at which 50 percent of the patients had lost consciousness (95 percent confidence interval): 61 (59-62)
Response Entropy (RE) value at which 50 percent of the patients had lost consciousness (95 percent confidence interval): 70 (68-72)
State Entropy (SE) value at which 50 percent of the patients had lost consciousness (95 percent confidence interval): 64 (62-66)
